According to PubChem BioAssay (NCI):
Several values for one entry are separate records, joined by “and”; a condition that tells them apart may be missing. Equal values may be shown once.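 Five concentrations, 48 hours, 96-well plates. GI50: concentration for 50% inhibition of growth. The concentration for full growth arrest is given as TGI.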

Columns and labels:
Assay in all cases: NCI tumour cell line growth inhibition, 48 h
SN12C renal = system: SN12C renal
SK-MEL-28 melanoma = system: SK-MEL-28 melanoma
SK-MEL-2 melanoma = system: SK-MEL-2 melanoma
RPMI-8226 leukemia = system: RPMI-8226 leukemia
DU-145 prostate = system: DU-145 prostate
786-0 renal = system: 786-0 renal
UACC-62 melanoma = system: UACC-62 melanoma
BT-549 breast = system: BT-549 breast
NCI-H226 lung = system: NCI-H226 lung
OVCAR-8 ovarian = system: OVCAR-8 ovarian
SK-MEL-5 melanoma = system: SK-MEL-5 melanoma
HOP-62 NSCLC = system: HOP-62 NSCLC
SNB-75 CNS = system: SNB-75 CNS
CAKI-1 renal = system: CAKI-1 renal
SF-268 CNS = system: SF-268 CNS
UACC-257 melanoma = system: UACC-257 melanoma
MDA-MB-435 = system: MDA-MB-435
SNB-19 CNS = system: SNB-19 CNS
HT29 colon = system: HT29 colon
HL-60(TB) leukemia = system: HL-60(TB) leukemia
A549 NSCLC = system: A549 NSCLC
OVCAR-5 ovarian = system: OVCAR-5 ovarian
HCT-116 colon = system: HCT-116 colon
OVCAR-4 ovarian = system: OVCAR-4 ovarian
NCI-H522 lung = system: NCI-H522 lung
SR leukemia = system: SR leukemia
HCC-2998 colon = system: HCC-2998 colon
U251 CNS = system: U251 CNS
MDA-N = system: MDA-N
A498 renal = system: A498 renal
T-47D breast = system: T-47D breast
SW-620 colon = system: SW-620 colon
K-562 leukemia = system: K-562 leukemia
PC-3 prostate = system: PC-3 prostate
M14 melanoma = system: M14 melanoma
ACHN renal = system: ACHN renal
MALME-3M melanoma = system: MALME-3M melanoma
UO-31 renal = system: UO-31 renal
OVCAR-3 ovarian = system: OVCAR-3 ovarian
CCRF-CEM leukemia = system: CCRF-CEM leukemia
MOLT-4 leukemia = system: MOLT-4 leukemia
HCT-15 colon = system: HCT-15 colon
LOX IMVI melanoma = system: LOX IMVI melanoma
MCF7 breast = system: MCF7 breast
IGROV1 ovarian = system: IGROV1 ovarian
NCI-H23 lung = system: NCI-H23 lung
NCI-H460 lung = system: NCI-H460 lung
MDA-MB-231 breast = system: MDA-MB-231 breast
TK-10 renal = system: TK-10 renal
KM12 colon = system: KM12 colon
SF-539 CNS = system: SF-539 CNS
COLO 205 colon = system: COLO 205 colon
SF-295 CNS = system: SF-295 CNS
NCI/ADR-RES ovarian = system: NCI/ADR-RES ovarian
HOP-92 NSCLC = system: HOP-92 NSCLC
RXF 393 renal = system: RXF 393 renal
EKVX NSCLC = system: EKVX NSCLC

With `Cc1ccc(C(=O)Nc2ccc(S(=O)(=O)O)c3cc(S(=O)(=O)O)cc(S(=O)(=O)O)c23)cc1NC(=O)Nc1cc(C(=O)Nc2ccc(S(=O)(=O)O)c3cc(S(=O)(=O)O)cc(S(=O)(=O)O)c23)ccc1C` the TGI (SN12C renal) was > 87.5 µM, the TGI (SK-MEL-28 melanoma) was > 87.5 µM and the TGI (SK-MEL-2 melanoma) was > 87.5 µM. For the same compound, the TGI (RPMI-8226 leukemia) was > 87.5 µM, the TGI (DU-145 prostate) was > 87.5 µM and the TGI (786-0 renal) was > 87.5 µM. For the same compound, the TGI (UACC-62 melanoma) was > 87.5 µM, the TGI (BT-549 breast) was > 87.5 µM and the TGI (NCI-H226 lung) was > 87.5 µM. For the same compound, the TGI (OVCAR-8 ovarian) was > 87.5 µM, the TGI (SK-MEL-5 melanoma) was > 87.5 µM and the TGI (HOP-62 NSCLC) was > 87.5 µM. The TGI (SNB-75 CNS) was > 87.5 µM, the TGI (CAKI-1 renal) was > 87.5 µM and the TGI (SF-268 CNS) was > 87.5 µM. For the same compound, the TGI (UACC-257 melanoma) was > 87.5 µM, the TGI (MDA-MB-435) was > 87.5 µM and the TGI (SNB-19 CNS) was > 87.5 µM. The TGI (HT29 colon) was > 87.5 µM, the TGI (HL-60(TB) leukemia) was > 87.5 µM and the TGI (A549 NSCLC) was > 87.5 µM. The TGI (OVCAR-5 ovarian) was > 87.5 µM, the TGI (HCT-116 colon) was > 87.5 µM and the TGI (OVCAR-4 ovarian) was > 87.5 µM. For the same compound, the TGI (NCI-H522 lung) was > 87.5 µM, the TGI (SR leukemia) was > 87.5 µM and the TGI (HCC-2998 colon) was > 87.5 µM. The TGI (U251 CNS) was > 87.5 µM, the TGI (MDA-N) was > 87.5 µM and the TGI (A498 renal) was > 87.5 µM. For the same compound, the TGI (T-47D breast) was > 87.5 µM, the TGI (SW-620 colon) was > 87.5 µM and the TGI (K-562 leukemia) was > 87.5 µM. The TGI (PC-3 prostate) was > 87.5 µM, the TGI (M14 melanoma) was > 87.5 µM and the TGI (ACHN renal) was > 87.5 µM. For the same compound, the TGI (MALME-3M melanoma) was > 87.5 µM, the TGI (UO-31 renal) was > 87.5 µM and the TGI (OVCAR-3 ovarian) was > 87.5 µM. The TGI (CCRF-CEM leukemia) was > 87.5 µM, the TGI (MOLT-4 leukemia) was > 87.5 µM and the TGI (HCT-15 colon) was > 87.5 µM. For the same compound, the TGI (LOX IMVI melanoma) was > 87.5 µM, the TGI (MCF7 breast) was > 87.5 µM and the TGI (IGROV1 ovarian) was > 87.5 µM. For the same compound, the TGI (NCI-H23 lung) was > 87.5 µM, the TGI (NCI-H460 lung) was > 87.5 µM and the TGI (MDA-MB-231 breast) was > 87.5 µM. The TGI (TK-10 renal) was > 87.5 µM.

In the case of `CC(C(N)=O)N(C)C(=O)c1cc2ccccc2[n+](Cc2ccccc2)c1` (stereo not drawn), the TGI (SN12C renal) is reported as > 100 µM, the TGI (SK-MEL-28 melanoma) is reported as > 100 µM and the TGI (KM12 colon) is reported as > 100 µM. For the same compound, the TGI (SK-MEL-2 melanoma) was > 100 µM, the TGI (RPMI-8226 leukemia) was > 100 µM and the TGI (DU-145 prostate) was > 100 µM. The TGI (786-0 renal) was > 100 µM, the TGI (UACC-62 melanoma) was > 100 µM and the TGI (BT-549 breast) was > 100 µM. For the same compound, the TGI (NCI-H226 lung) was > 100 µM, the TGI (OVCAR-8 ovarian) was > 100 µM and the TGI (SF-539 CNS) was > 100 µM. The TGI (SK-MEL-5 melanoma) was > 100 µM, the TGI (SNB-75 CNS) was > 100 µM and the TGI (CAKI-1 renal) was > 100 µM. The TGI (SF-268 CNS) was > 100 µM, the TGI (UACC-257 melanoma) was > 100 µM and the TGI (MDA-MB-435) was > 100 µM. The TGI (SNB-19 CNS) was > 100 µM, the TGI (HT29 colon) was > 100 µM and the TGI (HL-60(TB) leukemia) was > 100 µM. The TGI (A549 NSCLC) was > 100 µM, the TGI (OVCAR-5 ovarian) was > 100 µM and the TGI (HCT-116 colon) was > 100 µM. The TGI (OVCAR-4 ovarian) was > 100 µM, the TGI (NCI-H522 lung) was > 100 µM and the TGI (COLO 205 colon) was > 100 µM. For the same compound, the TGI (HCC-2998 colon) was > 100 µM, the TGI (U251 CNS) was > 100 µM and the TGI (MDA-N) was > 100 µM. The TGI (A498 renal) was > 100 µM, the TGI (T-47D breast) was > 100 µM and the TGI (SW-620 colon) was > 100 µM. The TGI (K-562 leukemia) was > 100 µM, the TGI (PC-3 prostate) was > 100 µM and the TGI (M14 melanoma) was > 100 µM. The TGI (ACHN renal) was > 100 µM, the TGI (MALME-3M melanoma) was > 100 µM and the TGI (UO-31 renal) was > 100 µM. For the same compound, the TGI (OVCAR-3 ovarian) was > 100 µM, the TGI (CCRF-CEM leukemia) was > 100 µM and the TGI (SF-295 CNS) was > 100 µM. The TGI (MOLT-4 leukemia) was > 100 µM, the TGI (HCT-15 colon) was > 100 µM and the TGI (NCI/ADR-RES ovarian) was > 100 µM. The TGI (HOP-92 NSCLC) was > 100 µM, the TGI (MCF7 breast) was > 100 µM and the TGI (IGROV1 ovarian) was > 100 µM. For the same compound, the TGI (NCI-H23 lung) was > 100 µM, the TGI (NCI-H460 lung) was > 100 µM and the TGI (RXF 393 renal) was > 100 µM. For the same compound, the TGI (MDA-MB-231 breast) was > 100 µM and the TGI (TK-10 renal) was > 100 µM.

For `CCNC(=O)CCC(C)[C@H]1CCC2C3C(C[C@H](OC(C)=O)[C@@]21C)[C@@]1(C)CCC2(C[C@H]1C[C@H]3OC(C)=O)OOC1(CCC(C)CC1)OO2` (stereo partly drawn), the TGI (SK-MEL-28 melanoma) was > 100 µM and 17.4 µM, the TGI (KM12 colon) was 4.3 µM and 3.25 µM and the TGI (SK-MEL-2 melanoma) was 3.91 µM and 3.21 µM. The GI50 (RPMI-8226 leukemia) was 0.574 µM and 1.39 µM, the TGI (RPMI-8226 leukemia) was 2.64 µM and 3.81 µM and the TGI (DU-145 prostate) was 3.22 µM and 6.19 µM. The TGI (786-0 renal) was 7.66 µM and 3.44 µM, the TGI (UACC-62 melanoma) was 10.8 µM and 6.15 µM and the TGI (BT-549 breast) was 5.94 µM and 3.2 µM. The TGI (NCI-H226 lung) was 9.4 µM and 3.85 µM, the TGI (SF-539 CNS) was 7.44 µM and 3.7 µM and the TGI (SK-MEL-5 melanoma) was 4.43 µM and 3.09 µM. The TGI (HOP-62 NSCLC) was 3.56 µM and 2.09 µM, the TGI (SNB-75 CNS) was 5.89 µM and 5.67 µM and the TGI (CAKI-1 renal) was 3.93 µM and 2.24 µM. The GI50 (SF-268 CNS) was 4.22 µM and 1.59 µM, the TGI (UACC-257 melanoma) was > 100 µM and 96.3 µM and the TGI (MDA-MB-435) was 5.22 µM and 3.44 µM. For the same compound, the TGI (SNB-19 CNS) was > 100 µM and 24.4 µM, the GI50 (HT29 colon) was 1.19 µM and 3.04 µM and the TGI (HL-60(TB) leukemia) was 3.74 µM and 4.85 µM. For the same compound, the TGI (A549 NSCLC) was 8.28 µM and 4.02 µM, the TGI (OVCAR-5 ovarian) was > 100 µM and the TGI (HCT-116 colon) was 6.01 µM and 4.28 µM. For the same compound, the TGI (OVCAR-4 ovarian) was 4.09 µM and 3.17 µM, the TGI (NCI-H522 lung) was 3.7 µM and 3.07 µM and the TGI (COLO 205 colon) was 3.18 µM and 3.2 µM. The TGI (SR leukemia) was 3.32 µM, the TGI (HCC-2998 colon) was 7.3 µM and 3.87 µM and the TGI (U251 CNS) was 7.32 µM and 3.23 µM. The TGI (MDA-N) was 10.3 µM and 3.92 µM, the GI50 (A498 renal) was > 100 µM and 25.6 µM and the TGI (A498 renal) was > 100 µM. The TGI (T-47D breast) was 5.18 µM and 3.84 µM, the TGI (K-562 leukemia) was > 100 µM and the GI50 (PC-3 prostate) was 0.716 µM and 2.06 µM. The TGI (PC-3 prostate) was > 100 µM and 11.4 µM, the TGI (M14 melanoma) was 43 µM and 5.24 µM and the TGI (ACHN renal) was 4.65 µM and 3.13 µM. For the same compound, the TGI (MALME-3M melanoma) was 6.1 µM and 3.92 µM, the TGI (UO-31 renal) was 2.38 µM and 2.71 µM and the TGI (OVCAR-3 ovarian) was 3.62 µM. For the same compound, the TGI (CCRF-CEM leukemia) was 3.2 µM and 3.94 µM, the GI50 (MOLT-4 leukemia) was 0.658 µM and 1.72 µM and the TGI (MOLT-4 leukemia) was 2.66 µM and 5.47 µM. The TGI (HCT-15 colon) was 20.4 µM and 4.62 µM, the TGI (EKVX NSCLC) was 2.69 µM and the TGI (LOX IMVI melanoma) was 6.29 µM and 4.61 µM. The TGI (HOP-92 NSCLC) was 7.31 µM and 3.38 µM, the TGI (MCF7 breast) was > 100 µM and the TGI (IGROV1 ovarian) was 3.66 µM and 2.87 µM. For the same compound, the TGI (NCI-H23 lung) was 9.01 µM and 5.24 µM, the GI50 (RXF 393 renal) was 9.58 µM and 3.18 µM and the TGI (RXF 393 renal) was > 100 µM and 16.5 µM. The TGI (MDA-MB-231 breast) was 6.13 µM and the TGI (TK-10 renal) was 6.74 µM and 5.13 µM.
